# From patent US20150105252A1, “SUBSTITUTED PYRAZOLES AS HERBICIDES” (E I DU PONT DE NEMOURS AND COMPANY, priority 2013, published 2015)
# Legend:
# johnsongrass = experiment: Test C postemergence; type: in vivo, Sorghum halepense
# Outline: (§1)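 Seeds were sown in a loam soil–sand blend and sprayed preemergence with compounds formulated in a non-phytotoxic solvent mixture containing surfactant. Postemergence plants, grown in peat/vermiculite medium to 2–18 cm (1- to 4-leaf stage), received the same formulation. After 13 to 15 days in a greenhouse, injury was rated visually against controls (0 = no effect, 100 = complete control).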
# waterhemp [1] = experiment: Test C postemergence; type: in vivo, Amaranthus rudis; conditions: postemergence
# From the text: Seeds of plant species selected from blackgrass (Alopecurus myosuroides), ryegrass, Italian (Italian ryegrass, Lolium multiflorum), wheat (winter wheat, Triticum aestivum), galium (catchweed bedstraw, Galium aparine), corn (Zea mays), crabgrass, large (large crabgrass, Digitaria sanguinalis), foxtail, giant (giant foxtail, Setaria faberii), johnsongrass (Sorghum halepense), lambsquarters (Chenopodium album), morningglory (Ipomoea coccinea), nutsedge, yellow (yellow nutsedge, Cyperus esculentus), pigweed (redroot pigweed, Amaranthus retroflexus), ragweed (common ragweed, Ambrosia elation), soybean (Glycine max), barnyardgrass (Echinochloa crus-galli), oilseed rape (Brassica napus), waterhemp (common waterhemp, Amaranthus rudis), oat, wild (wild oat, Avena fatua), kochia (Kochia scoparia), Surinam grass (Brachiaria decumbens), foxtail, green (green foxtail, Setaria viridis), goosegrass (Eleusine indica), bromegrass, downy (downy bromegrass, Bromus tectorum), nightshade (eastern black nightshade, Solanum ptycanthum), cocklebur (common cocklebur, Xanthium strumarium), cupgrass, woolly (woolly cupgrass, Eriochloa villosa), bermudagrass (Cynodon dactylon), sunflower, (common oilseed sunflower, Helianthus annuus), Russian thistle (Salsola kali), and velvetleaf (Abutilon theophrasti) were planted into a blend of loam soil and sand and treated preemergence with test chemicals formulated in a non-phytotoxic solvent mixture which included a surfactant.
# At the same time, plants selected from these crop and weed species and also chickweed (common chickweed, Stellaria media), canarygrass (littleseed canarygrass, Phalaris minor), and deadnettle (henbit deadnettle, Lamium amplexicaule), were planted in pots containing Redi-Earth® planting medium (Scotts Company, 14111 Scottslawn Road, Marysville, Ohio 43041) comprising spaghnum peat moss, vermiculite, wetting agent and starter nutrients and treated with postemergence applications of test chemicals formulated in the same manner. Plants ranged in height from 2 to 18 cm (1- to 4-leaf stage) for postemergence treatments. Treated plants and controls were maintained in a greenhouse for 13 to 15 days, after which time all species were compared to controls and visually evaluated. Plant response ratings, summarized in Table C, are based on a scale of 0 to 100 where 0 is no effect and 100 is complete control. A dash (-) response means no test result.
# foxtail, giant [2] = experiment: Test A preemergence; type: in vivo, Setaria faberii; conditions: preemergence
# Outline: (§2)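 Seeds were sown in a loam soil–sand blend and given a directed soil spray preemergence; postemergence plants at 2–10 cm, one- to two-leaf stage, were sprayed with compound in non-phytotoxic solvent with surfactant. After about 10 days in a greenhouse, injury was visually rated against untreated controls (0 = no effect, 100 = complete control).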
# crabgrass, large = experiment: Test C preemergence; type: in vivo, Digitaria sanguinalis; conditions: preemergence
# Outline: as §1
# foxtail, giant [3] = experiment: Test C preemergence; type: in vivo, Setaria faberii; conditions: preemergence
# Outline: as §1
# ducksalad = experiment: Test B flood; type: in vivo, Heteranthera limosa; conditions: 250 g ai/ha, visual rating on 0 to 100 scale (0 no effect, 100 complete control), 13 to 15 days
# Outline: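 Visual ratings on a 0–100 scale, where 0 means no effect and 100 means complete control, were assigned by comparison with controls 13 to 15 days after treatment. Compounds went into paddy water over 2-leaf plants flooded to 3 cm.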
# chickweed = experiment: Test C postemergence; type: in vivo, Stellaria media
# Outline: as §1
# morningglory = experiment: Test A postemergence; type: in vivo, Ipomoea spp.; conditions: Postemergence
# Outline: as §2
# foxtail, giant [4] = experiment: Test A postemergence; type: in vivo, Setaria faberii; conditions: Postemergence
# Outline: as §2
# oat, wild = experiment: Test C postemergence; type: in vivo, Avena fatua
# Outline: as §1
# waterhemp [5] = experiment: Test C preemergence; type: in vivo, Amaranthus rudis; conditions: preemergence
# Outline: as §1
# galium = experiment: Test C postemergence; type: in vivo, Galium aparine
# Outline: as §1
# foxtail, giant [6] = experiment: Test C postemergence; type: in vivo, Setaria faberii
# Outline: as §1
# [7] = Postemergence, 31 g ai/ha, visually evaluated after 13 to 15 days
# [8] = postemergence, 62 g ai/ha, scale 0 to 100
# [9] = postemergence, 250 g ai/ha, scale 0 to 100 (0 no effect, 100 complete control)
# [10] = postemergence, 125 g ai/ha, scale 0 to 100, 0 no effect, 100 complete control
# [11] = 31 g ai/ha, visual rating, scale 0 to 100 (0 no effect, 100 complete control), 13 to 15 days
# [12] = 62 g ai/ha, scale 0 to 100 (0 no effect, 100 complete control), 13 to 15 days
# [13] = 125 g ai/ha, 13 to 15 days, scale 0 to 100, 0 = no effect, 100 = complete control
# [14] = 250 g ai/ha, scale 0 to 100, 0 is no effect, 100 is complete control
# [15] = 125 g ai/ha, 0 to 100 scale, 0 no effect, 100 complete control
# [16] = 500 g ai/ha, 0 to 100 scale (0 no effect, 100 complete control)
compound,measurement,setting,value
CCc1cc(C(=O)NCC(F)(F)F)nn1Cc1ccnc(SC(F)(F)F)c1 [Compound 214],"Plant response rating (scale of 0 to 100 where 0 is no effect and 100 is complete control), Johnsongrass",johnsongrass; [7],0
same,Johnsongrass plant response rating,johnsongrass; [8],0
same,"Plant response rating, Johnsongrass",johnsongrass; [9],5
same,"Plant response rating, Johnsongrass",johnsongrass; [10],5
same,"Plant response rating, Waterhemp","waterhemp [1]; 250 g ai/ha, scale 0 to 100 (0 no effect, 100 complete control)",70
same,Waterhemp plant response rating,waterhemp [1]; scale 0 to 100,60
same,"Foxtail, Giant plant response rating (0 to 100 scale)","foxtail, giant [2]; 125 g ai/ha, visual injury approx. 10 days after treatment",100
same,"Foxtail, Giant plant response rating","foxtail, giant [2]; 500 g ai/ha, visual injury after approx. 10 days, 0 to 100 scale (0 no effect, 100 complete control)",100
same,"Crabgrass, Large plant response rating","crabgrass, large; [11]",100
same,"Crabgrass, Large plant response rating","crabgrass, large; [12]",100
same,"Plant response rating, Crabgrass, Large","crabgrass, large; [13]",100
same,"Crabgrass, Large plant response rating","crabgrass, large; [14]",100
same,"Foxtail, Giant plant response rating","foxtail, giant [3]; [11]",90
same,"Foxtail, Giant plant response rating","foxtail, giant [3]; [12]",98
same,"Plant response rating, Foxtail, Giant","foxtail, giant [3]; [13]",100
same,"Foxtail, Giant plant response rating","foxtail, giant [3]; [14]",100
same,"Plant response rating, Ducksalad",ducksalad,90
same,"Plant response rating (scale of 0 to 100 where 0 is no effect and 100 is complete control), Chickweed",chickweed; [7],50
same,Chickweed plant response rating,chickweed; [8],55
same,"Plant response rating, Chickweed",chickweed; [9],85
same,"Plant response rating, Chickweed",chickweed; [10],70
same,Morningglory plant response rating,morningglory; [15],80
same,Morningglory plant response rating,morningglory; [16],100
same,"Foxtail, Giant plant response rating","foxtail, giant [4]; [15]",100
same,"Foxtail, Giant plant response rating","foxtail, giant [4]; [16]",100
same,"Plant response rating (scale of 0 to 100 where 0 is no effect and 100 is complete control), Oat, Wild","oat, wild; [7]",10
same,"Oat, Wild plant response rating","oat, wild; [8]",15
same,"Plant response rating, Oat, Wild","oat, wild; [9]",40
same,"Plant response rating, Oat, Wild","oat, wild; [10]",15
same,Waterhemp plant response rating,waterhemp [5]; [11],100
same,Waterhemp plant response rating,waterhemp [5]; [12],100
same,"Plant response rating, Waterhemp",waterhemp [5]; [13],100
same,Waterhemp plant response rating,waterhemp [5]; [14],100
same,"Plant response rating (scale of 0 to 100 where 0 is no effect and 100 is complete control), Galium",galium; [7],75
same,Galium plant response rating,galium; [8],70
same,"Plant response rating, Galium",galium; [9],90
same,"Plant response rating, Galium",galium; [10],60
same,"Plant response rating (scale of 0 to 100 where 0 is no effect and 100 is complete control), Foxtail, Giant","foxtail, giant [6]; [7]",5
same,"Foxtail, Giant plant response rating","foxtail, giant [6]; [8]",5
same,"Plant response rating, Foxtail, Giant","foxtail, giant [6]; [9]",20
same,"Plant response rating, Foxtail, Giant","foxtail, giant [6]; [10]",15
